Values of other authors as cited in patent US20150272935A1, “Use of a Factor Xa Inhibitor for Treating and Preventing Bleeding Events And Related Disorders in Patients Having Sensitivity to Vitamin K Antagonists Used As Anticoagulants” (priority 2014, published 2015).
Read-outs that look alike come from different tables or passages of the source.

What was measured:
[1] = rats
[2] = monkeys
CYP2C9*2 = CYP2C9*2 (Homo sapiens, UniProt P11712, R144C); settings: CYP2C9*2 versus CYP2C9*1
CYP2C9*3 = CYP2C9*3 (Homo sapiens, UniProt P11712, I359L); settings: CYP2C9*3 versus CYP2C9*1

Compound	oral bioavailability [1]	oral bioavailability [2]	safety and tolerability (doses of up to 90 mg per day)	oral bioavailability (human subjects)	reduction of warfarin metabolism (CYP2C9*2)	reduction of warfarin metabolism (CYP2C9*3)
CN1CCc2nc(C(=O)N[C@@H]3C[C@@H](C(=O)N(C)C)CC[C@@H]3NC(=O)C(=O)Nc3ccc(Cl)cn3)sc2C1.Cc1ccc(S(=O)(=O)O)cc1 [Edoxaban]	orally bioavailable	orally bioavailable	generally safe and well tolerated	orally bioavailable		
CC(=O)CC(c1ccccc1)c1c(O)c2ccccc2oc1=O (stereo not drawn) [Warfarin]					about 30%	about 90%
